From the NIST ThermoML archive (doi:10.1021/je0602115)
Where “and” joins values, the source holds several entries; their conditions need not be identical. Identical values can stand only once. ± gives the expanded uncertainty stated by the source.

conditions: 313.15 K; Liquid; Closed cell (Static) method

**Q.** For `CCOC(C)(C)C` [2-ethoxy-2-methylpropane], which “vapor or sublimation pressure” value is on record?
**A.** Its value is 31.62 ± 0.12 kPa and 31.63 ± 0.12 kPa and 31.64 ± 0.12 kPa.

**Q.** For `CCCCCCC` [heptane], which “vapor or sublimation pressure” value is on record?
**A.** Its value is 12.32 ± 0.056 kPa and 12.33 ± 0.056 kPa and 12.31 ± 0.056 kPa.

**Q.** Which “vapor or sublimation pressure” value does the source give for `Cc1ccccc1` [toluene] here?
**A.** Its value is 7.88 ± 0.041 kPa [middle of 4 runs].
